From US8658685B2, “Methods for treatment of kallikrein-related disorders” (Activesite Pharmaceuticals, Inc., priority 2008, dated 2014)

B1: complement I inhibitors: inhibitors of the kallikrein pathway; probably complement 1 inhibitor (C1-INH) (protein, UniProt P05155 23-500, looked up)
Plasma protease C1 inhibitor: NPNATSSSSQDPESLQDRGEGKVATTVISKMLFVEPILEVSSLPTTNSTTNSATKITANTTDEPTTQPTTEPTTQPTIQPTQPTTQLPTDSPTQPTTGSFCPGPVTLCSDLESHSTEAVLGDALVDFSLKLYHAFSAMKKVETNMAFSPFSIASLLTQVLLGAGENTKTNLESILSYPKDFTCVHQALKGFTTKGVTSVSQIFHSPDLAIRDTFVNASRTLYSSSPRVLSNNSDANLELINTWVAKNTNNKISRLLDSLPSDTRLVLLNAIYLSAKWKTTFDPKKTRMEPFHFKNSVIKVPMMNSKKYPVAHFIDQTLKAKVGQLQLSHNLSLVILVPQNLKHRLEDMEQALSPSVFKAIMEKLEMSKFQPTLLTLPRIKVTTSQDMLSIMEKLEFFDFSYDLNLCGLTEDPDLQVSAMQHQTVLELTETGVEAAAASAISVARTLLVFEVQQPFLFVLWDQQHKFPVFMGRVYDPRA
B2: α2-macroglobulin: inhibitor of the kallikrein pathway (protein, UniProt P01023 24-1474, looked up)
Alpha-2-macroglobulin: SVSGKPQYMVLVPSLLHTETTEKGCVLLSYLNETVTVSASLESVRGNRSLFTDLEAENDVLHCVAFAVPKSSSNEEVMFLTVQVKGPTQEFKKRTTVMVKNEDSLVFVQTDKSIYKPGQTVKFRVVSMDENFHPLNELIPLVYIQDPKGNRIAQWQSFQLEGGLKQFSFPLSSEPFQGSYKVVVQKKSGGRTEHPFTVEEFVLPKFEVQVTVPKIITILEEEMNVSVCGLYTYGKPVPGHVTVSICRKYSDASDCHGEDSQAFCEKFSGQLNSHGCFYQQVKTKVFQLKRKEYEMKLHTEAQIQEEGTVVELTGRQSSEITRTITKLSFVKVDSHFRQGIPFFGQVRLVDGKGVPIPNKVIFIRGNEANYYSNATTDEHGLVQFSINTTNVMGTSLTVRVNYKDRSPCYGYQWVSEEHEEAHHTAYLVFSPSKSFVHLEPMSHELPCGHTQTVQAHYILNGGTLLGLKKLSFYYLIMAKGGIVRTGTHGLLVKQEDMKGHFSISIPVKSDIAPVARLLIYAVLPTGDVIGDSAKYDVENCLANKVDLSFSPSQSLPASHAHLRVTAAPQSVCALRAVDQSVLLMKPDAELSASSVYNLLPEKDLTGFPGPLNDQDNEDCINRHNVYINGITYTPVSSTNEKDMYSFLEDMGLKAFTNSKIRKPKMCPQLQQYEMHGPEGLRVGFYESDVMGRGHARLVHVEEPHTETVRKYFPETWIWDLVVVNSAGVAEVGVTVPDTITEWKAGAFCLSEDAGLGISSTASLRAFQPFFVELTMPYSVIRGEAFTLKATVLNYLPKCIRVSVQLEASPAFLAVPVEKEQAPHCICANGRQTVSWAVTPKSLGNVNFTVSAEALESQELCGTEVPSVPEHGRKDTVIKPLLVEPEGLEKETTFNSLLCPSGGEVSEELSLKLPPNVVEESARASVSVLGDILGSAMQNTQNLLQMPYGCGEQNMVLFAPNIYVLDYLNETQQLTPEIKSKAIGYLNTGYQRQLNYKHYDGSYSTFGERYGRNQGNTWLTAFVLKTFAQARAYIFIDEAHITQALIWLSQRQKDNGCFRSSGSLLNNAIKGGVEDEVTLSAYITIALLEIPLTVTHPVVRNALFCLESAWKTAQEGDHGSHVYTKALLAYAFALAGNQDKRKEVLKSLNEEAVKKDNSVHWERPQKPKAPVGHFYEPQAPSAEVEMTSYVLLAYLTAQPAPTSEDLTSATNIVKWITKQQNAQGGFSSTQDTVVALHALSKYGAATFTRTGKAAQVTIQSSGTFSSKFQVDNNNRLLLQQVSLPELPGEYSMKVTGEGCVYLQTSLKYNILPEKEEFPFALGVQTLPQTCDEPKAHTSFQISLSVSYTGSRSASNMAIVDVKMVSGFIPLKPTVKMLERSNHVSRTEVSSNHVLIYLDKVSNQTLSLFFTVLQDVPVRDLKPAIVKVYDYYETDEFAIAEYNAPCSKDLGNA

Experiments:
astrocytes [1] = experiment: Plasma kallikrein-induced ERK phosphorylation in astrocytes; assay type: cell-based; details: astrocytes exposed to plasma kallikrein
Source text: (§1) We have also studied the effects of plasma kallikrein pathway activation on astrocytes. […] Exposure of astrocytes to plasma kallikrein potently stimulated ERK phosphorylation, and this action of kallikrein on astrocytes is not affected by B2-R antagonism (Hoe140). The effect of kallikrein on astrocytes was blocked by leupeptin, a protease inhibitor and C1-INH (data not shown). […] This is in contrast to the bradykinin effect, which is rapid and transient (data not shown). Plasma kallikrein's effect on ERK phosphorylation in astrocytes is dose dependent, reaching a maximal effect at 100 nM kallikrein (data not shown). […] In addition, plasma kallikrein binding to astrocytes was blocked by AS-440 (FIG. 9B) and C1-INH (data not shown).

astrocytes [2] = experiment: Plasma kallikrein binding to astrocytes; assay type: cell-based
Source text: as §1

[3] = system: AngII-induced retinal vascular permeability; experiment: AngII-induced retinal vascular permeability in rats; assay type: in vivo, rat; details: AngII and ASP-465 via 2 Alzet pumps for 3 days; vitreous fluorophotometry
Method: Rats were implanted with a single subcutaneous osmotic pump containing Ang II or two pumps containing AngII and ASP-465, as indicated. RVP was measured using vitreous fluorophotometry after 3 days.
RVP was measured using Evan's blue dye method after 7 days.
We examined the effect of the kallikrein inhibitor ASP-465 on RVP induced by angiotensin II (AngII).

brain astrocytes = experiment: Bradykinin-induced ERK phosphorylation in brain astrocytes; assay type: cell-based
Source text: as §1

blood-induced hematoma = experiment: Hematoma after intracerebral infusion of autologous blood in diabetic rats; assay type: in vivo, Sprague-Dawley rats; details: systemic treatment, 48 h after intracerebral infusion of autologous blood
Method: We have compared the response to intracerebral infusion of blood in Sprague-Dawley rats with 1 mo of STZ-induced diabetes with age matched non-diabetic control rats. Fifty μL of autologous whole blood was collected from the tail vein and immediately infused 1 mm anterior, 4 mm lateral and 6 mm in depth to the bregma using a 30 gauge needle at 20 μL per minute. The infusion needle was removed 10 min after injection and the burr hole was sealed with bone wax. Forty-eight hours after intracerebral injection, the animals were perfused with saline and surface hematoma area was examined by measurement of hematoma area relative to total hemisphere area.

bradykinin-induced RVP = experiment: Bradykinin-induced RVP in rats (vitreous fluorophotometry); assay type: in vivo; details: pretreatment 2 days, 12 ug/day/200 g rat, subcutaneous Alzet pump
Source text: (§2) FIGS. 3A-3B are a set of two bar graphs that show the effects of intravitreal injection of kallikrein (FIG. 3A) and bradykinin (FIG. 3B) on RVP in rats measured using vitreous fluorophotometry. Activators of the kallikrein pathway, including purified activated plasma kallikrein, factor XII (FXII), high molecular weight kininogen (HK), and bradykinin, increase retinal vascular permeability (RVP) to fluorescein. In addition, inhibitors of the kallikrein pathway, such as complement I inhibitors and α2-macroglobulin reduced RVP. Direct injection of these kallikrein pathway activators into the vitreous was observed by SLO fundus imaging of the leakage from first phase fluorescein following bolus intravenous injection (FIG. 2) and by vitreous fluorophotometry, which measure the levels of fluorescein in the vitreous 30 min after intravenous injection (FIG. 5A). […] In addition, intravitreal injection of bradykinin can acutely increase RVP (FIGS. 2A and 2B). Moreover, pretreatment of rats for 2 days with Hoe140 (Bradykinin R2 antagonist, 12 ug/day/200 g rat delivered using a subcutaneous Alzet pump) inhibited bradykinin-induced RVP (FIG. 3B).

[4] = system: retinal vascular permeability (RVP); experiment: Retinal vascular permeability to fluorescein, kallikrein pathway inhibitors; details: in vivo
Source text: as §2, with “Activators” for “FIGS. 3A-3B are a set of two bar graphs that show the effects of intravitreal injection of kallikrein (FIG. 3A) and bradykinin (FIG. 3B) on RVP in rats measured using vitreous fluorophotometry. Activators”

Row | Molecule | effect of kallikrein on ERK phosphorylation (astrocytes [1]) | RVP [4] | other results
1 | C1-INH: C1-Esterase inhibitor, a serpin; major inhibitor of the classical complement pathway, contact activation system and intrinsic coagulation | blocked |  | plasma kallikrein binding to astrocytes (astrocytes [2]): blocked
2 | Cc1cc(C(=O)NCc2ccc(C(=N)N)cc2)c(C)n1Cc1ccncc1 [ASP-465, 2,5-Dimethyl-1-pyridin-4-ylmethyl-1H-pyrrole-3-carboxylic acid 4-carbamimidoyl-benzylamide] |  |  | RVP [3]: normal levels of RVP
3 | Hoe140 [reference compound] | not affected |  | bradykinin-induced ERK phosphorylation (brain astrocytes): blocked; hematoma area (blood-induced hematoma): did not reduce; bradykinin-induced RVP (bradykinin-induced RVP): inhibited
4 | CC(=O)N[C@@H](CC(C)C)C(=O)N[C@@H](CC(C)C)C(=O)N[C@H](C=O)CCCNC(=N)N [leupeptin, reference compound] | blocked |  | 
5 | B1 |  | reduced RVP | 
6 | B2 |  | reduced RVP | 
